Source: patent US11364247B2, “Methods of treatment of partial onset seizures using eslicarbazepine acetate” (BIAL-PORTELA & CA S.A., priority 2005, dated 2022)

Key:
[1] = Entry-into-man studies in healthy subjects (Almeida I, Almeida II), plasma and urine pharmacokinetics; assay type: in vivo, human
From the text: Studies in humans have shown that, after oral administration, eslicarbazepine acetate appears to be rapidly and extensively metabolized to the active metabolite eslicarbazepine and, in a minor extent, to R-licarbazepine. See Silveira et al., “BIA 2-093 Pharmacokinetics in Healthy Elderly Subjects,” Epilepsia, 45 (suppl. 3), 157 (2004). […] See Almeida I; Almeida, L. & Soares-da-Silva, P., “Safety, Tolerability and Pharmacokinetic Profile of BIA 2-093, a Novel Putative Antiepileptic Agent, during First Administration to Humans,” Drugs R&D, 4, 269-284 (2003) (herein referred to as “Almeida II”).
The inventors performed entry-into-man studies in healthy subjects, the results of which they described in the Almeida I and Almeida II articles, both of which are hereby incorporated by reference. In these studies, the healthy subjects received a single oral dose of eslicarbazepine acetate wherein the dose ranged from 20 mg to 1200 mg (see Almeida II), and multiple daily-doses of eslicarbazepine acetate ranging from 200 mg twice-daily to 1200 mg once-daily (see Almeida I). Further studies (not yet published) by the inventors have investigated higher doses of eslicarbazepine acetate, including, for example, doses ranging up to 2400 mg once-daily.

[2] = Study in epileptic patients: trough plasma concentrations of BIA 2-005; assay type: in vivo, human
From the text: This clinical trial was a double-blind, randomized, placebo-controlled study performed by 20 centers in Croatia, Czech Republic, Germany, Lithuania and Poland. The stated objectives of the study were to assess the efficacy and safety of BIA 2-093 as adjunctive therapy in patients with refractory partial epilepsy. In total, 143 patients aged 18-65 years with at least 4 partial-onset seizures per month in spite of treatment with 1 or 2 antiepileptic drugs (AEDs) (e.g., phenytoin, valproate, primidone, phenobarbital, lamotrigine, gabapentin, topiramate or clonazepam) were randomly assigned to one of three groups: treatment with placebo (n=47), BIA 2-093 once-daily (n=50), or BIA 2-093 twice-daily (n=46), during 12 weeks (plus 1 week of tapering off). For the first 4 weeks, daily dose was 400 mg. Then, daily doses were increased to 800 mg (weeks 5-8), and finally to 1200 mg (weeks 9-12). Tablets with strengths of 200 mg, 400 mg, and 600 mg eslicarbazepine acetate and placebo tablets were manufactured by BIAL (S. Mamede do Coronado, Portugal) in accordance with Good Manufacturing Practice. The assay plasma to determine the concentration of BIA 2-005 was performed with a non-chiral method using isocratic liquid chromatography (LC) with single quadrupole mass spectrometric detection (MS), as described herein. See, e.g., Almeida I and Almeida II.
Plasma/serum samples for the “trough” (pre-dose) levels of BIA 2-005 and concomitant AEDs were collected at all visits but V5 (post-study visit). The objective was to characterize the influence of eslicarbazepine acetate on the pharmacokinetic behavior of the concomitant AEDs (e.g., phenytoin, valproate, primidone, phenobarbital, lamotrigine, gabapentin, topiramate, and clonazepam).

[3] = Trial A: steady-state pharmacokinetics of once-daily and twice-daily regimens in healthy volunteers; assay type: in vivo, human; conditions: arithmetic mean; for AUC0-t / AUC0-∞ / Cmax / t1/2 / tmax: after last dose (8 days)
Protocol: This human pharmacology trial was a study to investigate the steady-state pharmacokinetics of once-daily and twice-daily regimens of eslicarbazepine acetate in healthy subjects. The study was a single center, open-label, randomized, two-way crossover study in 12 healthy volunteers (6 males and 6 females) that consisted of two 8-day treatment periods separated by a washout period of 10-15 days. […] Tablets with a strength of 450 mg of eslicarbazepine acetate, manufactured by BIAL (S. Mamede do Coronado, Portugal) in accordance with Good Manufacturing Practice, were used.
Blood samples for drug plasma assays were taken at the following times: […]
Blood samples were drawn either by direct venipuncture or via an intravenous catheter into lithium heparin tubes and centrifuged at approximately 1500 g for 10 minutes at 4° C. The resulting plasma was separated into 2 equal aliquots of 1 mL and stored at −20° C. until required for analysis.
Plasma concentrations of eslicarbazepine acetate, eslicarbazepine, and R-licarbazepine were determined using isocratic liquid chromatography (LC) with single quadrupole mass spectrometric detection (MS).
The method involved the addition of 500 μL of approximately 0.5 μg/mL of 10,11-dihydrocarbamazepine (internal standard prepared in acetonitrile:water, 3:97, v:v) to 250 μL of plasma (centrifuged at 1800 rpm, prior to analysis) in a polypropylene tube. After vortex mixing for 10 seconds, the mixture was transferred to a Schleicher and Schuell C18/100 mg 96 well solid phase extraction plate. Each well was preconditioned with 800 μL methanol, followed by 800 μL acetonitrile and 800 μL acetonitrile:water (3:97, v:v) prior to application of the total sample volume. Each polypropylene tube was then washed with 500 μL acetonitrile:water (3:97, v:v) and the washings transferred to the respective well. The compounds were eluted into a collection plate with 750 μL acetonitrile and the extract evaporated to dryness under oxygen-free nitrogen, at 40° C. All solid phase extraction manipulations were undertaken using the Tomtec QUADRA 96® Model 320 system and a vacuum was applied at each elution step. The final extract was reconstituted in 100 μL of water:methanol (90:10, v:v) and mixed. The collection plate was then centrifuged at approximately 3000 rpm (at approximately 4° C., for approximately 10 minutes) prior to analysis. An aliquot of the final extract (10 μL) was injected onto the LC-MS system.
The LC-MS system used in the analysis consisted of a Perkin Elmer series 200 micro pump, a Perkin Elmer series 200 autosampler, and a Perkin Elmer/Sciex API 150EX single quadrupole mass spectrometer fitted with a Turbo IonSpray® source. Separation was achieved using a LichroCART 250-4 ChiraDex column (β-cyclodextrin, 5 μm), a LichroCART 4-4 ChiraDex column guard column (β-cyclodextrin, 5 μm), a Jones Chromatography 7971 column heater at 50° C., a mobile phase A (0.2 mM sodium acetate, aq) and a mobile phase B (0.2 mM sodium acetate, MeOH). The MS detector was operated in positive ion mode with mass transitions for BIA 2-093, eslicarbazepine, R-licarbazepine, and the internal standard of 319.16 amu (200 ms), 277.08 amu (200 ms), 277.08 amu (200 ms) and 261.05 amu (200 ms), respectively. The limit of quantification of the assay was 10 ng/mL for eslicarbazepine acetate and 100 ng/mL for eslicarbazepine and R-licarbazepine.
Eslicarbazepine acetate, (S)-(−)-10-acetoxy-10,11-dihydro-5H-dibenz/b,f/azepine-5-carboxamide; eslicarbazepine, (S)-(+)-10,11-dihydro-10-hydroxy-5H dibenz/b,f/azepine-5-carboxamide; and R-licarbazepine, (R)-(−)-10,11-dihydro-10-hydroxy-5H dibenz/b,f/azepine-5-carboxamide, were synthesized in the Laboratory of Chemistry, BIAL, with purities>99.5%. The internal standard, 10,11-dihydrocarbamazepine was supplied by Sigma-Aldrich (St. Louis, Mo.).
The pharmacokinetic parameters were derived from non-compartmental analysis using WinNonlin (Version 4.0, Pharsight Corporation, Mountain View, Calif.). […]

[4] = tested on: voltage-gated sodium channel (VGSC); conditions: compared with carbamazepine; cited from earlier work
[5] = tested on: refractory partial epilepsy (partial-onset seizures); assay: Study in epileptic patients: efficacy as adjunctive therapy; assay type: in vivo, human; conditions: once-daily group compared with the other groups
Protocol: This clinical trial was a double-blind, randomized, placebo-controlled study performed by 20 centers in Croatia, Czech Republic, Germany, Lithuania and Poland. The stated objectives of the study were to assess the efficacy and safety of BIA 2-093 as adjunctive therapy in patients with refractory partial epilepsy. […] For the first 4 weeks, daily dose was 400 mg. Then, daily doses were increased to 800 mg (weeks 5-8), and finally to 1200 mg (weeks 9-12). Tablets with strengths of 200 mg, 400 mg, and 600 mg eslicarbazepine acetate and placebo tablets were manufactured by […] do Coronado, Portugal) in accordance with Good Manufacturing Practice. […] See, […] and Almeida II. The proportion of patients with a 50% or greater reduction in seizure frequency in the treatment period compared to the baseline period in the intention-to-treat (ITT) population (n=143) was the primary efficacy endpoint. […] The proportion of responders in the once-daily group (54%) was also higher than in the twice-daily (41%) group. […] At this dose level, no significant difference was found between the twice-daily and the placebo groups. Secondary endpoints include the reduction in total seizure frequency, proportion of seizure-free patients, distribution of responders, comparison of once and twice daily regimens, and investigator's and patient's global evaluation.

[6] = Metabolic profile in liver microsomes, chiral analysis; assay type: in vitro ADME; conditions: liver microsomes from rats, dogs, monkeys and humans, not the R(−) form
[7] = Trial B: pharmacokinetics following single doses in healthy young male subjects; assay type: in vivo, human
Protocol: (§1) This human pharmacology trial was a study to determine the pharmacokinetics of eslicarbazepine acetate following single and repeated doses. The study integrated the results of three double-blind, randomized, placebo-controlled trials. To measure the pharmacokinetics of eslicarbazepine acetate following single doses, oral single doses of eslicarbazepine acetate ranging from 20 mg to 2400 mg were administered to healthy young male subjects (6 subjects per dose). The pharmacokinetics of eslicarbazepine acetate following repeated doses were measured by administering repeated oral doses ranging from 400 mg to 2400 mg of eslicarbazepine acetate to healthy young male subjects (6 subjects per dose) over a period of 8 days. Analytical test methods and experimental procedures were similar to those described for Trial A above.

[8] = Trial B: pharmacokinetics following repeated once-daily doses over 8 days in healthy young male subjects; assay type: in vivo, human; conditions: for tmax: male, human, plasma, oral, read-out: Median tmax
Protocol: as §1

[9] = multiple oral dose of 900 mg eslicarbazepine acetate once-daily
[10] = multiple oral dose of 900 mg eslicarbazepine acetate twice-daily
[11] = single oral dose of 1200 mg eslicarbazepine acetate

NC(=O)N1c2ccccc2CC(O)c2ccccc21 (stereo not drawn) [BIA 2-005]
mean renal clearance from plasma ([1]; BIA 2-005, healthy subjects): 20 to 30 mL/min
extent of systemic exposure ([1]; BIA 2-005 after oral eslicarbazepine acetate, healthy subjects): approximately dose-proportional
trough plasma concentration, mean (sd) ([2]; 400 mg/day eslicarbazepine acetate, b.i.d. group): 4.9 (2.3) μg/mL
trough plasma concentration, mean (sd) ([2]; 400 mg/day eslicarbazepine acetate, o.d. group): 4.0 (3.2) μg/mL
trough plasma concentration, mean (sd) ([2]; 800 mg/day eslicarbazepine acetate, b.i.d. group): 13.5 (9.6) μg/mL
trough plasma concentration, mean (sd) ([2]; 800 mg/day eslicarbazepine acetate, o.d. group): 10.7 (7.0) μg/mL
trough plasma concentration, mean (sd) ([2]; 1200 mg/day eslicarbazepine acetate, b.i.d. group): 15.5 (8.8) μg/mL
trough plasma concentration, mean (sd) ([2]; 1200 mg/day eslicarbazepine acetate, o.d. group): 14.6 (8.8) μg/mL

NC(=O)N1c2ccccc2C[C@@H](O)c2ccccc21 [R-licarbazepine, (R)-(−)-10,11-dihydro-10-hydroxy-5H dibenz/b,f/azepine-5-carboxamide]
AUC0-t [3, 9]: 19,600 ng · h/mL
AUC0-∞ [3, 9]: 23989 ng·h/mL
Cmax [3, 9]: 674 ng/mL
t1/2 [3, 9]: 15.0 h
tmax [3, 9]: 9.42 h
AUC0-τ ([3]; multiple oral dose of 900 mg eslicarbazepine acetate once-daily, dosing interval 24 hours): 13397 ng·h/mL
AUC0-t [3, 10]: 19,661 ng · h/mL
AUC0-∞ [3, 10]: 23807 ng·h/mL
Cmax [3, 10]: 718 ng/mL
t1/2 [3, 10]: 14.8 h
tmax [3, 10]: 6.40 h
AUC0-τ ([3]; multiple oral dose of 900 mg eslicarbazepine acetate twice-daily, dosing interval 12 hours): 7783 ng·h/mL

CC(=O)O[C@H]1Cc2ccccc2N(C(N)=O)c2ccccc21 [eslicarbazepine acetate, (S)-(−)-10-acetoxy-10,11-dihydro-5H-dibenz/b,f/azepine-5-carboxamide]
affinity for the resting state of the sodium channel, lower than that of carbamazepine [4]: about 3 fold
assessment of efficacy by the investigator (CGI) and of acceptability by patient [5]: rated best
metabolite formed [6]: S(+) enantiomer of licarbazepine

NC(=O)N1c2ccccc2C[C@H](O)c2ccccc21 [eslicarbazepine, (S)-(+)-10,11-dihydro-10-hydroxy-5H dibenz/b,f/azepine-5-carboxamide]
AUC0-t ([7]; male, human, plasma, single oral dose of 2400 mg eslicarbazepine acetate, read-out: Mean AUC0-24 h): 446000 ng·h/mL
Mean apparent t1/2 ([7]; single oral dose of 20 mg eslicarbazepine acetate): 9.1 h
Median tmax ([7]; single oral dose of 400 mg eslicarbazepine acetate): 4 h
Median tmax ([7]; single oral dose of 600 mg eslicarbazepine acetate): 4 h
Mean AUC0-24 h [7, 11]: 285,700 ng · h/mL
Median tmax [7, 11]: 4 h
Mean apparent t1/2 ([7]; single oral dose of 2400 mg eslicarbazepine acetate): 11.1 h
Mean Cmax ([8]; last dose of 8-day repeated 800 mg o.d. eslicarbazepine acetate): 18,700 ng/mL
tmax ([8]; last dose of 8-day repeated 1800 mg o.d. eslicarbazepine acetate): 2 h
tmax ([8]; last dose of 8-day repeated 2400 mg o.d. eslicarbazepine acetate): 2 h
